These results are taken from ChEMBL document CHEMBL1201862, “PubChem BioAssay data set” (2004).

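In this assay, cells in 96-well plates receive the compound at five concentrations for 48 hours. Endpoints are linearly interpolated between the surrounding concentrations. GI50 = concentration required for 50% inhibition of growth.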 Activity calls are given as the source filed them. No stated cut-off is given here; in the data, active = GI50 up to about 1.1 µM and inactive = higher. A value given as a limit tells only on which side of the number the result lay.

Assay in all cases: NCI-60 cell line screen, 48 h
Assay [1] concerns SK-MEL-2.
Assay [2] deals with SNB-19.
Assay [3] has as its system COLO 205.
The test system of assay [4] is 786-0.
The subject of assay [5] is OVCAR-8.
In assay [6] the test system is SW-620.
Assay [7] deals with IGROV-1.
For assay [8], the system named is M14.
Assay [9] has as its system RXF 393.
Assay [10] concerns SN12C.
Assay [11] deals with TK-10.
Assay [12] relates to UO-31.
Assay [13] has as its system HOP-92.
Assay [14] deals with NCI-H226.
For assay [15], the system named is A498.
Assay [16] relates to OVCAR-3.
Assay [17] relates to SF-295.
The subject of assay [18] is KM12.
For assay [19], the system named is HT-29.
Assay [20] concerns OVCAR-5.

For `O=C1N(C2CCCCC2)CC12CCCCC2`, the GI50 in assay [1], in assay [2], in [3], in assay [4], in [5] and in assay [6] was > 100 µM (inactive) each time. Besides, the GI50 in assay [7], in assay [8], in assay [9], in assay [10], in assay [11] and in [12] was > 100 µM (inactive) throughout. Also, the GI50 in [13], in assay [14] and in assay [15] was > 100 µM (inactive) in each case.
As to `c1ccc2c(c1)nnn2CNc1ccc(N2CCOCC2)cc1`, the GI50 in assay [1], in assay [2], in assay [3], in assay [4], in assay [5] and in assay [6] was > 100 µM (inactive) each time. For the same molecule, the GI50 in [7], in assay [8], in assay [9], in assay [10], in assay [11] and in [16] was > 100 µM (inactive) in each case. The GI50 in [17], in assay [18], in assay [12], in [13], in assay [19] and in [14] was > 100 µM (inactive) in each case. Moreover, the GI50 in assay [15] was > 100 µM (inactive).
In the case of `C(=C/c1nc2ccccc2o1)/c1ccc2c(c1)OCO2`, the GI50 was 8.34 µM (inactive) in [1]; 16.1 µM (inactive) in [2]; 40.7 µM (inactive) in [3]; 29.7 µM (inactive) in [5]; 16.7 µM (inactive) in assay [6]; 16.1 µM (inactive) in [7]. In addition, the GI50 in [20] is > 36.6 µM (inactive); in assay [9] it was 14.7 µM (inactive); in [10], 58.6 µM (inactive); in assay [16] it was 12.1 µM (inactive); in assay [17] it was 8.04 µM (inactive); in assay [18], 4.91 µM (inactive). Also, the GI50 in assay [12] was 17 µM (inactive); in assay [13], 13.2 µM (inactive); in assay [19], 12.8 µM (inactive); in assay [14], 18 µM (inactive); in [15], 21.8 µM (inactive).
As to `COC(=O)Cc1c([C@H]2[C@H](CC(=O)OC)c3ccccc3N2C(=O)C(F)(F)F)[nH]c2ccccc12`, the GI50 in assay [1] is 25 µM (inactive); in assay [2], 54.3 µM (inactive); in assay [3], 18.2 µM (inactive); in assay [4] it was > 100 µM (inactive); in assay [5], 32.5 µM (inactive); in [6], 32.4 µM (inactive). Besides, the GI50 is 2.83 µM (inactive) in [7]; 18.9 µM (inactive) in assay [20]; 20 µM (inactive) in [9]; 46.1 µM (inactive) in [10]; 51.4 µM (inactive) in assay [11]; 15.9 µM (inactive) in assay [16]. Further, the GI50 in assay [17] is 18.1 µM (inactive); in assay [12] it was 33.6 µM (inactive); in assay [13] it was 32.3 µM (inactive); in assay [19] it was 29.3 µM (inactive); in assay [14] it was 2 µM (inactive); in [15], 90.2 µM (inactive).
Turning to `Cc1nc2ccc(S(=O)(=O)Nc3nccs3)cc2c(=O)n1NS(=O)(=O)c1nccs1`, the GI50 in assay [1] is > 100 µM (inactive); in assay [2], > 100 µM (inactive); in assay [3], > 100 µM (inactive); in [5], > 100 µM (inactive); in assay [6] it was 78.3 µM (inactive); in assay [7] it was > 100 µM (inactive). Also, the GI50 in assay [20], in [8], in assay [9], in assay [10], in assay [11] and in assay [16] was > 100 µM (inactive) throughout. The GI50 was 58.7 µM (inactive) in assay [17]; 64.9 µM (inactive) in [18]; 13.7 µM (inactive) in [12]; > 100 µM (inactive) in assay [13]; 41.5 µM (inactive) in assay [19]; > 100 µM (inactive) in assay [14]. Moreover, the GI50 in assay [15] was > 100 µM (inactive).
As for `COc1cc(C2C(C(=O)NCc3ccccc3)=C(C)NC(C)=C2C(=O)NCc2ccccc2)ccc1O`, the GI50 is 22.3 µM (inactive) in assay [1]; 29.9 µM (inactive) in assay [2]; 46.2 µM (inactive) in [4]; 38.3 µM (inactive) in assay [5]; 37.5 µM (inactive) in assay [6]; 34.4 µM (inactive) in assay [7]. The GI50 in [20] was 57.5 µM (inactive); in [8], 34.4 µM (inactive); in assay [9] it was 28.8 µM (inactive); in assay [10], 31.5 µM (inactive); in assay [11], 35.2 µM (inactive); in assay [16], 29.8 µM (inactive). Besides, the GI50 in assay [17] was 46 µM (inactive); in assay [12] it was 65.3 µM (inactive); in assay [13] it was 31.4 µM (inactive); in [19], 21.5 µM (inactive); in assay [14], 37.9 µM (inactive); in [15], 84.9 µM (inactive).
In the case of `COc1cc(C)cc(OC)c1/C=C/C(=O)O`, the GI50 in assay [1], in assay [2], in assay [4], in assay [5], in assay [6] and in assay [7] was > 100 µM (inactive) throughout. The GI50 was > 100 µM (inactive) in [20]; > 100 µM (inactive) in assay [8]; > 100 µM (inactive) in assay [9]; > 100 µM (inactive) in assay [10]; > 100 µM (inactive) in assay [11]; 21.5 µM (inactive) in assay [16]. Also, the GI50 in assay [17], in assay [18], in [12], in assay [13], in assay [19] and in assay [14] was > 100 µM (inactive) in each case. In assay [15], the GI50 was > 100 µM (inactive).
For the molecule `Cc1ccc(S(=O)(=O)N/N=C2\C=C[C@]3(CC2)C(=O)N(C)c2ccccc23)cc1`, the GI50 in assay [1] was > 100 µM (inactive); in assay [2], > 100 µM (inactive); in assay [3], > 100 µM (inactive); in assay [4], 33.5 µM (inactive); in assay [5], > 100 µM (inactive); in [6], > 100 µM (inactive). Besides, the GI50 in [7], in assay [20], in assay [8], in assay [9], in assay [10] and in [16] was > 100 µM (inactive) each time. Also, the GI50 in assay [17] is > 100 µM (inactive); in assay [18] it was > 100 µM (inactive); in assay [12], > 100 µM (inactive); in assay [13] it was > 100 µM (inactive); in assay [14], 69 µM (inactive); in assay [15], > 100 µM (inactive).
Turning to `COC(=O)c1ccc(NC(=O)c2cc(OC)c(OC)c(OC)c2)cc1`, the GI50 is 0.798 µM (active) in [1]; 1 µM (active) in assay [2]; 0.211 µM (active) in assay [3]; 0.859 µM (active) in [4]; 12.2 µM (inactive) in [5]; 0.955 µM (active) in assay [6]. Further, the GI50 in [7] is 3.17 µM (inactive); in assay [8], 4.28 µM (inactive); in [9], 39.4 µM (inactive); in assay [10], 1.85 µM (inactive); in [11], 2.34 µM (inactive); in assay [16] it was 1.08 µM (active). For the same molecule, the GI50 in [17] is 0.8 µM (active); in [18] it was 1.02 µM (active); in assay [12] it was 2.05 µM (inactive); in assay [13], 6.65 µM (inactive); in assay [19], 1.35 µM (inactive); in assay [14] it was 2.54 µM (inactive). Moreover, in assay [15], the GI50 is 3.44 µM (inactive).
In the case of `CCCCCCc1cc2cc(C(=O)Nc3nc(C45CC6CC(CC(C6)C4)C5)cs3)c(=O)oc2cc1O`, the GI50 is 12.3 µM (inactive) in [1]; 12.3 µM (inactive) in assay [2]; 16.7 µM (inactive) in assay [3]; 12.1 µM (inactive) in [4]; 7.11 µM (inactive) in assay [5]; 19 µM (inactive) in assay [6]. The GI50 in assay [7] was 10.4 µM (inactive); in [20] it was 16 µM (inactive); in [9], 8.24 µM (inactive); in assay [10], 5.53 µM (inactive); in [11], 11.3 µM (inactive); in assay [16], 13.1 µM (inactive). The GI50 in assay [17] is 4.06 µM (inactive); in [18], 11 µM (inactive); in assay [12] it was 24.5 µM (inactive); in [13] it was 4.93 µM (inactive); in assay [19], 13.3 µM (inactive); in assay [14], 19.1 µM (inactive). Also, the GI50 in assay [15] is 13.6 µM (inactive).
In the case of `CCCOC1OC(CS(=O)(=O)O)C(O)C(O)C1O` (stereo not given), the GI50 in [1], in assay [2], in assay [3], in assay [5], in assay [6] and in assay [7] was > 100 µM (inactive) throughout. Besides, the GI50 in assay [20], in assay [8], in assay [9], in assay [10], in [11] and in assay [16] was > 100 µM (inactive) each time. Further, the GI50 in assay [17], in assay [18], in assay [12], in assay [13], in [19] and in [14] was > 100 µM (inactive) each time. Also, in assay [15], the GI50 was > 100 µM (inactive).
